# Patent US8058243B2, “Method for treating a brain cancer with ifenprodil” (HSC Research and Development Limited Partnership, priority 2006, dated 2011)
# Structures can show the parent of a compound that is named as a salt. Where two headings read alike, the source gives them in different places.
# System: murine neural precursor cells (neurosphere cultures)
# Experiment: HTS of LOPAC library against secondary neurosphere cultures, MTT proliferation assay at 3 μM, day 7 (z score, P value)
# Type: cell-based, mouse
# [1] = LOPAC library screen, 3 μM, MTT, neurosphere cultures
# [2] = LOPAC screen, neurosphere MTT proliferation, 3 μM, day 7
# [3] = yes/no: significantly inhibited neurosphere proliferation (P<0.01) in primary screen
# [4] = LOPAC primary screen, neurosphere MTT proliferation, 3 μM, day 7
# [5] = yes/no: significantly inhibited neurosphere proliferation in primary screen
# [6] = yes = significantly inhibited neurosphere proliferation (P<0.01) in the primary screen
# [7] = LOPAC library screen at 3 μM, secondary neurosphere cultures, MTT
# [8] = yes/no: significantly inhibited neurosphere proliferation (P<0.01) in the primary screen
# [9] = primary LOPAC screen, 3 μM, MTT, neurosphere proliferation
# [10] = yes/no: significantly inhibited neurosphere proliferation in the primary screen
# [11] = LOPAC library screen, 3 μM, MTT, secondary neurosphere cultures, day 7
compound,measurement,setting,value
O=C1CCc2cc(OCCCCc3nnnn3C3CCCCC3)ccc2N1 [Cilostazol],Z Score,[1],0.8219
same,Z score,[2],0.822
same,Activity,[3],no
Br.Cc1o[nH]c(=O)c1CC(N)C(=O)O (racemic) [(±)-AMPA hydrobromide],Z score,[4],−0.427
same,Activity,[3],no
O=C1CCC(c2ccc(-n3ccnc3)cc2)=NN1 [Imazodan],Z Score,"168 h, 3 µM",0.4616
same,Z score,"168 h, 3 µM",0.462
same,Activity,[3],no
(+)-Cyclazocine,Z Score,,0.6116
same,Z score,[2],0.612
same,Activity,[3],no
C[C@@H](N)[C@H]1CC[C@H](C(=O)Nc2ccncc2)CC1 [Y-27632 dihydrochloride],Z Score,"168 h, 3 µM",−0.1255
same,Z score,"168 h, 3 µM",−0.125
same,Activity,[3],no
"Cc1ccc(OCC(O)C(C)NC(C)C)c2c1CCC2.Cl (stereo not shown) [ICI 118,551 hydrochloride]",Z Score,,1.101
same,Z score,[4],1.101
same,Activity,[3],no
S(−)-p-Bromotetramisole oxalate,Z Score,,−1.295
same,Z score,[4],−1.295
same,Activity,[5],no
CC(Cc1ccc(O)c(O)c1)C(C)Cc1ccc(O)c(O)c1 (stereo not shown),Z Score,"LOPAC library screen at 3 μM, MTT, secondary neurosphere cultures, screened in singlets",2.63
same,Z score,[4],2.630
same,Activity,[6],no
"OC1(c2ccc(Cl)cc2)CCN(Cc2c[nH]c3ccccc23)CC1 [L-741,626]",Z Score,,−1.009
same,Z score,[4],−1.009
same,Activity,[6],no
CC(C)NCC(O)COc1cccc2ccccc12.Cl (stereo not shown) [(B1)-Propranolol hydrochloride],Z Score,[1],0.3567
O=C(O)CN(CCN(CC(=O)O)CC(=O)O)CCN(CC(=O)O)CC(=O)O [Diethylenetriaminepentaacetic acid],Z Score,[7],−0.4576
same,Z score,[4],−0.458
same,Activity,[8],no
CCCCC/C=C\C[C@@H](O)/C=C/c1cccc(C[C@@H](O)CCCCO)n1 [U-75302],Z Score,,−0.1722
same,Z score,[9],−0.172
same,Activity,[10],no
Fc1ccc(C(OCCN2CCN(CCCc3ccccc3)CC2)c2ccc(F)cc2)cc1 [GBR-12909 dihydrochloride],Z Score,[11],−10.9
same,Z score,[4],−10.899
CN[C@H](CC(=O)O)C(=O)O [N-Methyl-D-aspartic acid],Z Score,,−1.86
same,Z score,[4],−1.860
same,Activity,[6],no
"O=Nc1ccc2oc(=O)ccc2c1 [6-Nitroso-1,2-benzopyrone]",Z score,[4],0.011
same,Activity,[6],no
Cl.NC[C@@H]1O[C@H](C23CC4CC(CC(C4)C2)C3)Cc2c1ccc(O)c2O [A-77636 hydrochloride],Z Score,,1.44
same,Z score,[9],1.440
same,Activity,[10],no
CC(/C=C/c1cccc(Oc2ccc(F)cc2)c1)N(O)C(N)=O (stereo not shown) [BWB70C],Z Score,,−0.8932
same,Z score,[2],−0.893
same,Activity,[3],no
C[N+]1(C)C2CCC1CC(OC(=O)c1c[nH]c3ccccc13)C2.[I-] (stereo not shown),Z Score,,−0.3436
same,Z score,[9],−0.344
same,Activity,[10],no
O=C(O)CNC(=O)C(CS)Cc1ccccc1 (racemic) [DL-Thiorphan],Z Score,[7],−0.3116
same,Z score,[4],−0.312
same,Activity,[5],no
C=CC[N+](C)(C)c1ccc(CCC(=O)CCc2ccc([N+](C)(C)CC=C)cc2)cc1.[Br-].[Br-] [BW 284c51],Z Score,,−0.4017
same,Z score,[9],−0.402
same,Activity,[10],no
Cl.NCCNC(=O)c1ncsc1-c1cccc(F)c1 [Ro 41-1049 hydrochloride],Z Score,,1.328
same,Z score,[4],1.328
same,Activity,[5],no
C[N+](C)(C)CCCCCCCCCC[N+](C)(C)C.[Br-].[Br-] [Decamethonium dibromide],Z Score,,−1.572
same,Z score,[4],−1.572
same,Activity,[8],no
"C[C@H](Cc1ccc2c(c1)OC(C(=O)[O-])(C(=O)[O-])O2)NC[C@H](O)c1cccc(Cl)c1.[Na+].[Na+] [CL 316, 243]",Z Score,,0.6212
CCCN(CCC)C1Cc2cc(OC)c(OC)cc2C1.O=C(O)/C=C\C(=O)O [U-99194A meleate],Z score,[4],1.255
same,Activity,[8],no
NNC(=O)c1ccc(O)cc1 [4-Hydroxybenzhydrazide],Z Score,,−0.7888
same,Z score,[4],−0.789
same,Activity,[3],no
"CN1C2CCC1CC(OC(=O)c1cc(Cl)cc(Cl)c1)C2 (stereo not shown) [3-Tropanyl-3,5-dichlorobenzoate]",Z Score,,−9.272
same,Z score,[4],−9.272
same,Activity,[8],yes
CCn1cnc2c(Nc3cccc(Cl)c3)nc(N[C@@H]3CCCC[C@@H]3N)nc21.Cl [CGP-74514A hydrochloride],Z Score,,−9.117
same,Z score,[4],−9.117
same,Activity,[8],yes
O=C(c1ccc(F)cc1)C1CCN(CCn2c(=O)[nH]c3ccccc3c2=O)CC1 [Ketanserin tartrate],Z Score,"168 h, 3 µM",−3.325
same,Z score,"168 h, 3 µM",−3.325
same,Activity,[8],yes
CCN(CC)CCNC(=O)c1ccc(N)cc1 [Procainamide hydrochloride],Z Score,[1],0.6535
same,Z score,[4],0.654
same,Activity,[8],no
Phenylbenzene-omega-phosphono-alpha-amino acid,Z Score,,−0.01423
same,Z score,[4],−0.014
same,Activity,[5],no
NC(CCP(=O)(O)O)C(=O)O (racemic) [(±)-2-Amino-4-phosphonobutyric acid],Z score,[9],1.893
same,Activity,[10],no
C=C/C(C)=C/[C@@]1(C)SC(=O)C(C)=C1O [Thiolactomycin],Z Score,[11],−1.3
same,Z score,[4],−1.300
same,Activity,[5],no
CCc1ccccc1OC[C@@H](O)CN[C@H]1CCCc2ccccc21.O=C(O)C(=O)O [SR 59230A oxalate],Z Score,[11],−1.222
same,Z score,[4],−1.222
same,Activity,[5],no
CNCC[C@@H](Oc1ccccc1C)c1ccccc1 [Tomoxetine],Activity,,no
same,Z Score,[1],0.1672
same,Z score,[9],0.167
Cc1ccccc1/C=C/C1=NCCN1 [Metrazoline oxalate],Z Score,"168 h, 3 µM",0.1073
same,Z score,"168 h, 3 µM",0.107
same,Activity,[6],no
N=C(N)NCCCCN.O=S(=O)(O)O [Agmatine sulfate],Z Score,[1],0.5881
same,Z score,[4],0.588
same,Activity,[6],no
O=C(Nc1ccccc1)c1cc([N+](=O)[O-])ccc1Cl [GW9662],Z Score,,1.475
same,Z score,[4],1.475
same,Activity,[6],no
C[C@H]1c2cccc(O)c2C(=O)C2=C(O)[C@]3(O)C(=O)C(C(N)=O)=C(O)[C@@H](N(C)C)[C@@H]3[C@@H](O)[C@@H]21 [Doxycycline hydrochloride],Z Score,[7],−0.5578
same,Z score,[2],−0.558
same,Activity,[3],no
CCCCN1CCC(COC(=O)c2cc(Cl)c(N)c3c2OCCO3)CC1.Cl [SB 204070 hydrochloride],Z Score,,−5.886
same,Z score,[4],−5.886
same,Activity,[8],yes
COc1nc(C)nc(Cl)c1N=C1NCCN1 [Moxonidine hydrochloride],Z Score,[1],0.2171
same,Z score,[4],0.217
same,Activity,[6],no
N#CC(C#N)=Cc1ccc(O)c(O)c1 [Tyrphostin 23],Z Score,,−0.8396
same,Z score,[4],−0.840
same,Activity,[5],no
C[C@H](O)[C@H](O)[C@H]1CNc2nc(N)[nH]c(=O)c2N1.Cl,Z Score,[1],0.9757
same,Z score,[9],0.976
same,Activity,[10],no
CCCCCCCC/C=C\CCCCCCCC(=O)O [Oleic Acid],Z Score,[7],−0.3449
COc1cc(C(O)C(=O)O)ccc1O (racemic) [(±)-Vanillylmandelic acid],Z score,"168 h, 3 µM",−1.811
same,Activity,[3],no
OCCN1CCN(CCCN2c3ccccc3Sc3ccc(C(F)(F)F)cc32)CC1 [Fluphenazine dihydrochloride],Z Score,"168 h, 3 µM",−10.2
same,Z score,"168 h, 3 µM",−10.197
same,Activity,[8],yes
CN1C2CCC1CC(OC(c1ccccc1)c1ccc(Cl)cc1)C2.Cl (stereo not shown),Z Score,,−9.672
same,Z score,[4],−9.672
same,Activity,[8],yes
"NCC(=O)NCCC(c1ccccc1)c1ccccc1 [N-(3,3-Diphenylpropyl)glycinamide]",Z Score,[11],−1.243
same,Z score,[4],−1.243
same,Activity,[3],no
Cl.Clc1cc(I)cc(Cl)c1NC1=NCCN1 [p-Iodoclonidine hydrochloride],Z Score,,−0.1606
same,Z score,[4],−0.161
same,Activity,[3],no
CCN(CC)CCOC(=O)C1(C2CCCCC2)CCCCC1 [Dicyclomine hydrochloride],Z Score,"168 h, 3 µM",1.414
same,Z score,"168 h, 3 µM",1.414
Cl.Cl.NNCc1cccc(O)c1 [3-Hydroxybenzylhydrazine dihydrochloride],Z Score,,−0.4866
same,Z score,[4],−0.487
same,Activity,[3],no
CC[C@@H]1Cc2cc(O)ccc2C2=C1c1ccc(O)cc1C[C@H]2CC,Z Score,,−1.053
same,Z score,[4],−1.053
same,Activity,[8],no
O=C(O)c1ccccc1Nc1ccccc1 [N-Phenylanthranilic acid],Z Score,[11],−1.61
same,Z score,[4],−1.610
same,Activity,[5],no
CC(=O)Oc1ccccc1C(=O)O [Acetylsalicylic acid],Z Score,[7],−0.4812
Cn1cnc([N+](=O)[O-])c1Sc1ncnc2nc[nH]c12 [Azathioprine],Z Score,[11],−7.913
same,Z score,[4],−7.913
same,Activity,[6],yes
NCC(CC(=O)O)c1ccc(Cl)cc1 (stereo not shown) [(B1)-Baclofen],Z Score,,−1.069
COc1ccccc1NC(=O)Nc1nc(-c2cccnc2)nc2ccccc12 [VUF 5574],Z Score,,0.5811
same,Z score,[9],0.581
same,Activity,[10],no
"CC(O)C(C)OC(=O)[C@@H]1C[C@@H]2c3cccc4c3c(cn4C(C)C)C[C@H]2N(C)C1.O=C(O)/C=C\C(=O)O (stereo partly shown) [LY-53,857 maleate]",Z Score,,−0.3382
same,Z score,[4],−0.338
same,Activity,[8],no
